Like-named read-outs stand apart in the source and are kept apart here.
Key:
[1] = cited from earlier work
uricase = biological target: T1, uricase (Cyberlindnera jadinii, UniProt P78609); assay: Stability of uricase at 60° C. (enzyme activity recovery, optical assay) with preservative and additives; type: biochemical; conditions: pH 8.0
T1 construct: purchased Sigma U0880
T1 sequence (P78609 1-303): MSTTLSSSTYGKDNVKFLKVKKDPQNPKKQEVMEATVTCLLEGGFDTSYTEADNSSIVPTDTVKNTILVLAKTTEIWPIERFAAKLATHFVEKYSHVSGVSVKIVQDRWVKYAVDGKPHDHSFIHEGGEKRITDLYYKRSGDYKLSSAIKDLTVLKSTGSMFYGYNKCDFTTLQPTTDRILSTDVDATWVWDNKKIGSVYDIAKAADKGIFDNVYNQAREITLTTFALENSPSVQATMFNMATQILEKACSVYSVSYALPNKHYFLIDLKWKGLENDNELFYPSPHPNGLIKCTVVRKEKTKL
Description: Uricase was obtained from Sigma (U0880). The enzyme was formulated at 100 μg/ml. Measurements of enzyme activity were performed on a 96-well plate using an optical assay: 10 μl of the formulation was mixed with […] (borate buffer 25 mM, pH 8.5) and 50 μL substrate (sodium urate 2 mM). The mixture was equilibrated at room temperature for about 5 min. After 5 min, the following reagents were added in this particular order to each sample (the first reagent must be added at exactly 5 min, the timing of the other reagents addition is less crucial): 50 μl of citrate/phosphate buffer (0.5 M. pH 4.0); 15 μL of TMB (3 mg/mL, dissolved in DMSO) then 15 μL of lactoperoxidase (1 mg/mL, dissolved in water). The resulting solution was mixed thoroughly and absorbance was read at 630 nm using a plate reader. Optical density was calibrated using a range of concentrations of a reference enzyme solution. All measurements were carried out in triplicates and average value was recorded. Stability of enzyme was found in the preliminary experiments to be optimal at pH around 8.0, with minimal effect of ionic strength on the stability. The preservation of the enzyme activity was studied in a background formulation containing 10 mM histidine and 300 mM 1,2-propanediol, adjusted to pH 8. […] The effect of the stabilizing excipients was studied by comparing the stability of uricase in the solution containing the preservative only with that in the solution containing both the preservative and the stabilizing component. The concentration of the additives tested was selected based on their solubility in aqueous solutions.

[2] = biological target: human growth hormone (hGH) (Homo sapiens, UniProt P01241); assay: Formation of high molecular weight species (HMWS) in aqueous hGH solutions at 40° C., size-exclusion HPLC; type: physicochemical; conditions: 10 mM benzoate anion, background solutions 1 and 2, 40° C.
Chain of human growth hormone (hGH) (P01241 27-217): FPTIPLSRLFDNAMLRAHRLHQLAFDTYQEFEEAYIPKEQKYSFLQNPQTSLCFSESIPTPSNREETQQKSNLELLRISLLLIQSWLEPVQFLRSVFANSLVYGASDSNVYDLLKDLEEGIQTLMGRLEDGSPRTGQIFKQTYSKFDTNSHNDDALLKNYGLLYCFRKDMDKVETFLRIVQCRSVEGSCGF
Description: Formation of high molecular weight species (HMWS) was followed in aqueous solutions of hGH (15 mg/mL) using the following size-exclusion HPLC method: The mobile phase was prepared by mixing 97 parts (v/v) of 63 mM sodium phosphate (pH 7.0) with 3 parts (v/v) of propan-2-ol. The mobile phase was filtered prior to its use. The liquid chromatograph (Agilent 1100 series) was equipped with a 214 nm detector, guard column and a 7.8×300 mm BioSep SEC-S2000 column. The flow rate was maintained at 0.6 ml/min. 15 μl of aqueous samples of hGH were injected. The percentage of HMS was expressed as the ratio of the total area of all peaks with shorter elution time than the monomeric form of hGH versus the total peak area, ignoring peaks corresponding the excipients. The hGH solutions were incubated at 40° C. and assessed for the presence of HMWS at specific timepoints. In addition, the samples were assessed by eye for signs of visible precipitation.

[3] = tested on: horseradish peroxidase (HRP); assay: Stability of horseradish peroxidase (HRP) at 60° C. (enzyme activity recovery, optical assay) with preservative and additives; type: biochemical
Description: HRP was obtained from Sigma (P8250), The enzyme was formulated at 0.5 mg/ml. Measurements of enzyme activity were performed on a 96-well plate using an optical assay: 20 μl of the formulation was mixed with 180 μl enzyme diluent solution (1.82 mM ABTS, 28 mM hydrogen peroxide in 0.1M sodium phosphate buffer pH 7.0). The resulting solution was mixed thoroughly and absorbance was read at 630 nm using a plate reader after 5 min. Optical density was calibrated using a range of concentrations of a reference enzyme solution. All measurements were carried out in triplicates and average value was recorded. Stability of enzyme was found in the preliminary experiments to be optimal at pH around 7.0 and relatively independent of ionic strength. The preservation of the enzyme activity was studied in background formulations containing 10 mM TRIS and 1,2-propanediol (300 mM) at pH 7.0. With the exception of control solutions, the solutions contained m-cresol (30 mM). The effect of the stabilizing excipients was studied by comparing the stability of HRP in the solution containing the preservative only with that in the solution containing both the preservative and the stabilizing component. The concentration of the additives tested was selected based on their solubility in aqueous solutions.

With `O=C(O)c1ccc2ccccc2c1` [2-naphthoic acid] as the molecule, how does the “pKa value(s) of carboxylate group(s)” value ([1]; first or only value given) read?
Its value is 4.17.

Which “pKa value(s) of carboxylate group(s)” value ([1]; first or only value given) does the source give for `O=C(O)c1cc(O)c(O)c(O)c1` [3,4,5-trihydroxybenzoic acid] here?
The value was 4.41.

Which “pKa value(s) of carboxylate group(s)” value ([1]; first or only value given) does the source give for `COc1cc(C(=O)O)ccc1O` [4-hydroxy-3-methoxybenzoic acid] here?
The value was 4.5.

For `OCc1ccccc1` [Benzyl alcohol], which “Effect on stability of uricase at 60° C.” value (uricase) is on record?
Its value is “impairment of stability”.

With `O=C(O)C1CCCCC1` [Cyclohexane carboxylic acid, reference compound] as the molecule, how does the “Effect on stability of uricase at 60° C.” value (uricase) read?
The value was “increase in the destabilising effect”.

With `Oc1ccccc1` [Phenol] as the molecule, how does the “Effect on stability of uricase at 60° C.” value (uricase) read?
The value was “impairment of stability”.

Which “Effect on rate of HMWS formation” value [2] does the source give for `O=C([O-])c1ccccc1.[K+]` [benzoate anion, potassium benzoate] here?
The value was “lower rate of HMWS formation”.

Which “pKa value(s) of carboxylate group(s)” value ([1]; first or only value given) does the source give for `O=C(O)/C=C\c1ccccc1` [cis-cinnamic acid] here?
Its value is 3.89.

With `O=C(O)Cc1c[nH]c2ccccc12` [indole-3-acetic acid] as the molecule, how does the “pKa value(s) of carboxylate group(s)” value ([1]; first or only value given) read?
Its value is 4.75.

For `Cc1cccc(O)c1` [m-Cresol], which “Effect on stability of HRP at 60° C.” value ([3]; 60° C., pH 7.0) is on record?
Its value is “slight impairment of stability”.

With `O=C(O)c1ccccc1C(=O)O` [phthalic acid] as the molecule, how does the “pKa value(s) of carboxylate group(s)” value ([1]; second value printed (second carboxylate group)) read?
Its value is 5.28.

With “HRP: HRP obtained from Sigma (P8250), formulated at 0.5 mg/ml” as the molecule, how does the “pH of optimal stability of enzyme” value ([3]; preliminary experiments) read?
The value was “around 7.0”.

Source: patent US10925965B2, “Protein formulations with increased stability” (Arecor Limited, priority 2010, dated 2021)
